Assay results reported in US9221792B2, “N-(4-(azetidine-1-carbonyl) phenyl)-(hetero-) arylsulfonamide derivatives as pyruvate kinase M2 (PMK2) modulators” (AGIOS PHARMACEUTICALS, INC, priority 2010, dated 2015).

target: PKM2 (Homo sapiens, UniProt P14618); assay: PKM2 Assay (activation, LDH-coupled NADH absorbance at 340 nm); format: biochemical; details: activation of PKM2; PKM2 50 ng/well, ADP 0.7 mM, PEP 0.15 mM, room temperature (25° C.); read-out: AC50
Protocol: • PKM2 stock enzyme solution was diluted in Reaction Buffer • 2 μL of compound was added into each well first, and then 180 μL of the Reaction Mix was added. • Reaction mixture with compound (without ADP) were incubated for 30 minutes at 4° C. • Plates were re-equilibrated to room temperature prior to adding 20 μL ADP to initiate the reaction. • Reaction progress was measured as changes in absorbance at 340 nm wavelength at room temperature (25° C.) Reaction Mix: PKM2 (50 ng/well), ADP (0.7 mM), PEP (0.15 mM), NADH (180 μM), LDH (2 units) in Reaction Buffer Reaction Buffer: 100 mM KCl, 50 mM Tris pH 7.5, 5 mM MgCl2, 1 mM DTT, 0.03% BSA.
Certain compounds of Formula I were tested in the above-described assay. A compound described herein may be tested for its ability to activate PKM2. The activation activity of these compounds is represented as an AC50 in Table 2 and throughout the application. […] “B” refers to an activator of PKM2 with an EC50 between 100 nM and 1 μM. “C” refers to an activator of PKM2 with an EC50 between 1 μM and 10 μM. “D” refers to an activator of PKM2 with an EC50 greater than 10 μM. “NA” refers to data that is not available.

PKM2, sequence (P14618 whole entry): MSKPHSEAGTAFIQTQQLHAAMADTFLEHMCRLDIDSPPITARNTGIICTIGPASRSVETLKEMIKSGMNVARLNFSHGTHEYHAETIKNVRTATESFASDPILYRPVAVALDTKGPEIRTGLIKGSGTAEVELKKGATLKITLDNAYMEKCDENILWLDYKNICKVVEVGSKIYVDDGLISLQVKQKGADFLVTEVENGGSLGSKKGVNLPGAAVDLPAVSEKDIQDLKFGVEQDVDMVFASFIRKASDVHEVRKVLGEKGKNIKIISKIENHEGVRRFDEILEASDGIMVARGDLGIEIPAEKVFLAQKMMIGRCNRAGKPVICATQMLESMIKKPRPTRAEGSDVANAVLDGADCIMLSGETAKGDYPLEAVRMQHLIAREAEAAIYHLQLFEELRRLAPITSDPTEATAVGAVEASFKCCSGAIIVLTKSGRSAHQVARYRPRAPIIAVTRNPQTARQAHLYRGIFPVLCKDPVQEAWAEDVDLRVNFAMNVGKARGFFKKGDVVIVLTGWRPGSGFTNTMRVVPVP

| AC50 | SMILES |
| --- | --- |
| > 10000 nM | COc1cc(NS(=O)(=O)c2cccc3cccnc23)ccc1C(=O)N1CC(O)C1 [Compound 143] |
| < 100 nM | Cc1cc(C(=O)N2CC(Nc3ccccc3)C2)ccc1NS(=O)(=O)c1cccc2cccnc12 [Compound 145] |
| < 100 nM | COc1cccnc1NC1CN(C(=O)c2ccc(NS(=O)(=O)c3cccc4cccnc34)c(C)c2)C1 [Compound 149] |
| < 100 nM | COc1ccccc1OC1CN(C(=O)c2ccc(NS(=O)(=O)c3cccc4cccnc34)cc2OC)C1 [Compound 150] |
| 100 to 1000 nM | COc1ccccc1OC1CN(C(=O)c2ccc(NS(=O)(=O)c3cccc4cccnc34)c(F)c2)C1 [Compound 154] |
| 100 to 1000 nM | COc1cc(C(=O)N2CC(OC(=O)Nc3ccccn3)C2)ccc1NS(=O)(=O)c1cccc2cccnc12 [Compound 156, 1-(3-Methoxy-4-(quinoline-8-sulfonamido)benzoyl)azetidin-3-yl pyridin-2-ylcarbamate] |
| 100 to 1000 nM | COc1cc(NS(=O)(=O)c2cccc3cccnc23)ccc1C(=O)N1CC(OC(=O)Nc2ccccn2)C1 [Compound 157, 1-(2-Methoxy-4-(quinoline-8-sulfonamido)benzoyl)azetidin-3-yl pyridin-2-ylcarbamate] |
| < 100 nM | COc1cc(C(=O)N2CC(Oc3ccccc3OC)C2)ccc1NS(=O)(=O)c1cccc2cccnc12 [Compound 158] |
| < 100 nM | COc1ccccc1OC1CN(C(=O)c2ccc(NS(=O)(=O)c3cccc4cccnc34)c(C)c2)C1 [Compound 159] |

More lines, now with the values behind:

| SMILES | AC50 |
| --- | --- |
| C=CCNC(=O)NC1CN(C(=O)c2ccc(NS(=O)(=O)c3cccc4cccnc34)cc2)C1 [Compound 139, N-(4-(3-(3-Allylureido)azetidine-1-carbonyl)phenyl)quinoline-8-sulfonamide] | 1000 to 10000 nM |
| C=CCNC(=O)NC1CN(C(=O)c2ccc(NS(=O)(=O)c3cccc4cccnc34)c(OC)c2)C1 [Compound 140, N-(4-(3-(3-Allylureido)azetidine-1-carbonyl)-2-methoxyphenyl)quinoline-8-sulfonamide] | 1000 to 10000 nM |
| O=C(c1ccc(NS(=O)(=O)c2cccc3cccnc23)cc1)N1CC(O)C1 [Compound 141] | > 10000 nM |
| Cc1cc(C(=O)N2CC(O)C2)ccc1NS(=O)(=O)c1cccc2cccnc12 [Compound 142] | 1000 to 10000 nM |
| Cc1cc(C(=O)N2CC(C)(O)C2)ccc1NS(=O)(=O)c1cccc2cccnc12 [Compound 144] | 1000 to 10000 nM |
| CN(Cc1ccccc1)C1CN(C(=O)c2ccc(NS(=O)(=O)c3cccc4cccnc34)cc2)C1 [Compound 146] | 100 to 1000 nM |
| O=C(c1ccc(NS(=O)(=O)c2cccc3cccnc23)cc1)N1CC(NCc2ccccc2)C1 [Compound 147, N-(4-(3-(benzylamino)azetidine-1-carbonyl)phenyl)quinoline-8-sulfonamide] | 100 to 1000 nM |
| COc1ncccc1NC1CN(C(=O)c2ccc(NS(=O)(=O)c3cccc4cccnc34)c(C)c2)C1 [Compound 148] | 100 to 1000 nM |
| Cc1cc(C(=O)N2CC(Nc3ccccn3)C2)ccc1NS(=O)(=O)c1cccc2cccnc12 [Compound 151] | < 100 nM |
| COc1ccncc1NC1CN(C(=O)c2ccc(NS(=O)(=O)c3cccc4cccnc34)c(C)c2)C1 [Compound 153] | 100 to 1000 nM |
| Cc1cc(C(=O)N2CC(OC(=O)Nc3ccccn3)C2)ccc1NS(=O)(=O)c1cccc2cccnc12 [Compound 155, 1-(3-Methyl-4-(quinoline-8-sulfonamido)benzoyl)azetidin-3-yl pyridin-2-ylcarbamate] | 100 to 1000 nM |
| O=C(Nc1ccccn1)NC1CN(C(=O)c2ccc(NS(=O)(=O)c3cccc4cccnc34)cc2)C1 [Compound 160, N-(4-(3-(3-(Pyridin-2-yl)ureido)azetidine-1-carbonyl)phenyl)quinoline-8-sulfonamide] | 100 to 1000 nM |
| O=C(Nc1ccccn1)OC1CN(C(=O)c2ccc(NS(=O)(=O)c3cccc4cccnc34)cc2)C1 [Compound 161, 1-(4-(Quinoline-8-sulfonamido)benzoyl)azetidin-3-ylpyridin-2-ylcarbamate] | 1000 to 10000 nM |
| O=C(Nc1ccccn1)OC1CN(C(=O)c2ccc(NS(=O)(=O)c3cccc4cccnc34)c(F)c2)C1 [Compound 162, 1-(3-Fluoro-4-(quinoline-8-sulfonamido)benzoyl)azetidin-3-yl pyridin-2-ylcarbamate] | > 10000 nM |
| CC(C)NC(=O)NC1CN(C(=O)c2ccc(NS(=O)(=O)c3cccc4cccnc34)cc2)C1 [Compound 163] | 1000 to 10000 nM |
| Cc1cc(C(=O)N2CC(NC(=O)NC(C)C)C2)ccc1NS(=O)(=O)c1cccc2cccnc12 [Compound 164] | 100 to 1000 nM |
| O=C(c1ccc(NS(=O)(=O)c2cccc3cccnc23)cc1)N1CC(=Cc2ccccc2)C1 [Compound 165] | 100 to 1000 nM |
